Common to all, as to test: ≥ marks a high value that may be exact or a test limit, other limits are often not marked, values filed in µg/mL are converted to µM
Test [1] concerns Escherichia coli ATCC 2592.
In test [2] the test system is Staphylococcus aureus ATCC 33591.
Test [3] has as its system Pseudomonas aeruginosa ATCC 10145.
Test [4] has as its system Cryptococcus neoformans ATCC 32045.
The test system of test [5] is Candida albicans ATCC 10231.
Test [6] concerns Staphylococcus aureus JE2.
Test [7] concerns Escherichia coli K-12.
Test [8] concerns Pseudomonas aeruginosa H187.
For test [9], the system named is Escherichia coli UB1005.
Test [10] has as its system Pseudomonas aeruginosa ATCC 27853.
Test [11] relates to Enterococcus faecalis ATCC 29212.
For test [12], the system named is Staphylococcus aureus ATCC 29213.
Test [13] has as its system Candida albicans.
Test [14] relates to Salmonella enterica subsp. enterica serovar Typhimurium C77-31.
The test system of test [15] is Staphylococcus aureus ATCC 43300.
Test [16] relates to Pseudomonas aeruginosa PAO1.
Test [17] has as its system Candida parapsilosis CGMCC 2.3989.
Test [18] relates to Salmonella enterica subsp. enterica serovar Choleraesuis CVCC 503.
Test [19] has as its system Candida tropicalis CGMCC 2.1975.
Test [20] concerns Salmonella enterica subsp. enterica serovar Typhimurium ATCC 14028.
Test [21] deals with Staphylococcus epidermidis ATCC 12228.
Test [22] has as its system Staphylococcus aureus ATCC 25923.
The subject of test [23] is Escherichia coli KCTC 1682.
Test [24] relates to Staphylococcus aureus CCARM 3095.
For test [25], the system named is Staphylococcus aureus CCARM 3089.
In test [26] the test system is Staphylococcus aureus KCTC 1621.
Test [27] relates to Enterococcus faecium ATCC 51559.
The test system of test [28] is Pseudomonas aeruginosa CCARM 2095.
Test [29] deals with Staphylococcus aureus CCARM 3090.
Test [30] relates to Salmonella typhimurium KCTC 1926.
Test [31] concerns Bacillus subtilis KCTC 3068.
In test [32] the test system is Staphylococcus epidermidis KCTC 1917.
Test [33] relates to Pseudomonas aeruginosa KCTC 1637.

In brackets after ≈: the same amount, converted by molar mass.

For the compound `C[C@H](NC(=O)[C@H](Cc1ccccc1)NC(=O)[C@H](CCCCN)NC(=O)[C@H](CCCCN)NC(=O)[C@H](C)NC(=O)[C@H](Cc1ccccc1)NC(=O)[C@H](CCCCN)NC(=O)[C@H](CCCCN)NC(=O)[C@H](C)NC(=O)[C@H](Cc1ccccc1)NC(=O)[C@H](CCCCN)NC(=O)[C@H](CCCCN)NC(=O)[C@H](C)NC(=O)[C@H](Cc1ccccc1)NC(=O)[C@H](CCCCN)NC(=O)[C@H](CCCCN)NC(=O)[C@H](C)NC(=O)[C@H](Cc1ccccc1)NC(=O)[C@H](CCCCN)NC(=O)[C@H](CCCCN)NC(=O)[C@H](C)NC(=O)[C@@H](N)Cc1ccccc1)C(=O)N[C@@H](CCCCN)C(=O)N[C@@H](CCCCN)C(=O)O` [FAKKFAKKFAKKFAKKFAKKFAKK], the MIC in test [1] is 8.14 µM (≈ 23.3 µg/mL); in test [2] it was at least 87.2 µM; in test [3] it was 21.6 µM (≈ 62 µg/mL); in test [4], 7.9 µM (≈ 22.6 µg/mL); in [5], 61.7 µM (≈ 177 µg/mL).

As for `C[C@H](NC(=O)[C@H](CCCCN)NC(=O)[C@H](Cc1ccccc1)NC(=O)[C@H](C)NC(=O)[C@H](CCCCN)NC(=O)[C@H](Cc1ccccc1)NC(=O)[C@H](C)NC(=O)[C@H](CCCCN)NC(=O)[C@H](Cc1ccccc1)NC(=O)[C@H](C)NC(=O)[C@H](CCCCN)NC(=O)[C@H](Cc1ccccc1)NC(=O)[C@H](C)NC(=O)[C@H](CCCCN)NC(=O)[C@H](Cc1ccccc1)NC(=O)[C@H](C)NC(=O)[C@H](CCCCN)NC(=O)[C@H](Cc1ccccc1)NC(=O)[C@H](C)NC(=O)[C@H](CCCCN)NC(=O)[C@H](Cc1ccccc1)NC(=O)[C@H](C)NC(=O)[C@H](CCCCN)NC(=O)[C@@H](N)Cc1ccccc1)C(=O)O` [FKAFKAFKAFKAFKAFKAFKAFKA], the MIC was 8.11 µM (≈ 22.6 µg/mL) in [1]; at least 179 µM in test [2]; 8.96 µM (≈ 25 µg/mL) in test [3]; 8.11 µM (≈ 22.6 µg/mL) in [4]; 127 µM (≈ 354 µg/mL) in [5].

In the case of `CC[C@H](C)[C@H](NC(=O)[C@@H](NC(=O)[C@H](CO)NC(=O)[C@H](C)NC(=O)[C@@H](NC(=O)CNC(=O)[C@H](CCCCN)NC(=O)[C@H](CCCCN)NC(=O)[C@@H](NC(=O)[C@@H](NC(=O)[C@H](CC(=O)O)NC(=O)[C@H](Cc1ccccc1)NC(=O)[C@H](CC(C)C)NC(=O)CN)C(C)C)[C@@H](C)CC)C(C)C)C(C)C)C(=O)NCC(=O)NCC(=O)N[C@@H](CC(C)C)C(=O)O` [GLFDVIKKGVASVIGGL], the results for the MIC in test [6] and in test [7] were at least 153 µM and at least 38.3 µM, respectively.

`CC[C@H](C)[C@H](NC(=O)[C@H](Cc1ccccc1)NC(=O)[C@H](CO)NC(=O)[C@H](CCCCN)NC(=O)[C@H](Cc1c[nH]c2ccccc12)NC(=O)[C@@H](N)CCCCN)C(=O)N[C@@H](CCCCN)C(=O)N[C@@H](CC(N)=O)C(=O)N[C@@H](CC(C)C)C(=O)N[C@@H](CCC(=O)O)C(=O)N[C@@H](CCCCN)C(=O)N[C@H](C(=O)N[C@@H](CC(C)C)C(=O)N[C@@H](CCCCN)C(=O)N[C@@H](CCCCN)C(=O)NCC(=O)N1CCC[C@H]1C(=O)N[C@H](C(=O)N[C@@H](CC(C)C)C(=O)N[C@@H](C)C(=O)N[C@@H](CC(N)=O)C(=O)N[C@@H](CC(C)C)C(=O)N[C@H](C(=O)N[C@@H](CO)C(=O)N[C@H](C(=O)N[C@H](C(=O)O)C(C)C)[C@@H](C)CC)C(C)C)[C@@H](C)CC)C(C)C` [KWKSFIKNLEKVLKKGPILANLVSIV]: the MIC in test [8] stood at 2.7 µM (≈ 8 µg/mL); in test [9], 0.674 µM (≈ 2 µg/mL).

On to `CC(C)C[C@H](NC(=O)[C@H](CCCN=C(N)N)NC(=O)[C@H](C)NC(=O)[C@H](CS)NC(=O)[C@H](CC(C)C)NC(=O)[C@H](CCCCN)NC(=O)[C@H](CCCCN)NC(=O)[C@H](CC(C)C)NC(=O)[C@H](CCCN=C(N)N)NC(=O)[C@H](C)NC(=O)[C@H](CS)NC(=O)[C@H](CC(C)C)NC(=O)[C@H](CCCCN)NC(=O)[C@H](CCCCN)NC(=O)[C@H](CC(C)C)NC(=O)[C@H](CCCN=C(N)N)NC(=O)[C@H](C)NC(=O)[C@H](CS)NC(=O)[C@H](CC(C)C)NC(=O)[C@H](CCCCN)NC(=O)[C@H](CCCCN)NC(=O)[C@@H](N)CC(C)C)C(=O)N[C@@H](CCCCN)C(=O)N[C@@H](CCCCN)C(=O)N[C@@H](CC(C)C)C(=O)N[C@@H](CS)C(=O)N[C@@H](C)C(=O)N[C@@H](CCCN=C(N)N)C(N)=O` [LKKLCARLKKLCARLKKLCARLKKLCAR], for which the MIC is over 64 µM in test [10]; over 64 µM in [11]; over 64 µM in test [12]; 5.66 µM (≈ 18.5 µg/mL) in test [13]; 2 µM (≈ 6.54 µg/mL) in test [9]; at least 64 µM in test [14]. The MIC in test [15] was over 64 µM; in test [16], over 64 µM; in test [17], 4 µM (≈ 13.1 µg/mL); in test [18] it was at least 64 µM; in test [19], 2 µM (≈ 6.54 µg/mL); in test [20], over 64 µM. For the same compound, the MIC in [21] and in test [22] was over 64 µM in each case.

Regarding `CC[C@H](C)[C@@H]1NC(=O)[C@H]([C@@H](C)O)NC(=O)[C@H](Cc2cnc[nH]2)NC(=O)[C@H](CCCN=C(N)N)NC(=O)[C@H](C)NC(=O)[C@H](CCCN=C(N)N)NC(=O)[C@H](CC(C)C)NC(=O)[C@H](CO)NC(=O)[C@H](C)NC(=O)[C@@H](NC(=O)[C@H](CC(C)C)NC(=O)[C@@H](N)CC(N)=O)CSSC[C@@H](C(=O)N[C@@H](CCCN=C(N)N)C(=O)N[C@@H](CCCCN)C(=O)N[C@@H](Cc2ccccc2)C(=O)NCC(=O)N[C@@H](CCCN=C(N)N)C(=O)N[C@@H](CCCN=C(N)N)C(=O)O)NC(=O)[C@H](CCC(N)=O)NC(=O)[C@@H]2CCCN2C1=O` [NLCASLRARHTIPQCRKFGRR], the MIC was 12.5 µM (≈ 31 µg/mL) in test [23]; 12.5 µM (≈ 31 µg/mL) in test [24]; 12.5 µM (≈ 31 µg/mL) in test [25]; 12.5 µM (≈ 31 µg/mL) in [26]; 25 µM (≈ 62 µg/mL) in test [27]; at least 50 µM in [28]. Further, the minimal inhibitory concentration (MIC) worked out at 25 µM (≈ 62 µg/mL) in [29]; 12.5 µM (≈ 31 µg/mL) in test [30]; 12.5 µM (≈ 31 µg/mL) in test [31]; 12.5 µM (≈ 31 µg/mL) in [32]; 12.5 µM (≈ 31 µg/mL) in [33].

One may read the MIC as the lowest concentration that inhibits growth of the organism. A high value points to a less susceptible organism.

(Values after DBAASP.)
